Test results published in patent publication US12410133B2, “Crystalline (r)-5-carbamoylpyridin-3-yl-2-methyl-4-(3-(trifluoromethoxy)benzyl)piperazine-1-carboxylate, compositions and methods of use thereof” (Celgene Corporation, priority 2018, dated 2025).
In brackets after ≈: the same amount, converted by molar mass. Marks after values point to notes of the source that are not given here.

Columns and labels:
Format in all cases: physicochemical
[1] = Form A solubility study in FaSSIF-v2 and FeSSIF-v2 at 37° C.; details: for solubility at 2 h / solubility at 24 h / Final Form: 37° C.; for Final Form: residual solid by XRPD
Protocol: Solubility was evaluated at 2 hr and 24 hr for Form A in FaSSIF-v2 and FeSSIF-v2 at 37° C. Approximately 40 mg of Form A sample was added in 2.0 mL of corresponding bio-medium to form a suspension, followed by shaking at 500 rpm at 37° C. After 2 hr and 24 hr, the supernatants were isolated by centrifugation (7000 rpm for 5 min) followed by filtration through […] PTFE membrane and were tested by HPLC concentration and pH. The residual solids were characterized by XRPD.

[2] = Accelerated solid-state stability study of Form A
Protocol: Solid-state stability evaluation (accelerated conditions) was performed on Form A under conditions of 25° C./60% RH and 40° C./75% RH. The detailed procedure utilized for stability evaluation is listed below:
1) weigh approximately 30 mg of Form A sample into each 3-mL vial;
2) cover the vial with Parafilm® and poke 15 holes on the Parafilm® with a needle;
3) put the vial in a stability chamber of 25° C./60% RH or 40° C./75% RH; and
4) sample for XRPD, TGA, DSC, HPLC purity and assay tests after 2, 4 and 6 weeks and 3 months.

[3] = Log D7.4 by shake-flask method (pH 7.4 phosphate buffer and n-octanol); details: n-octanol/pH 7.4 phosphate buffer
Protocol: (§1) A summary of baseline solid state characterization results of crystalline (R)-5-carbamoylpyridin-3-yl-2-methyl-4-(3-(trifluoromethoxy)benzyl)piperazine-1-carboxylate Form A, including pKa, partition coefficient (log D7.4) measurement and 2-hrs equilibrium solubility in FaSSIF and FeSSIF (version 2) are provided herein. […] Log D7.4 was measured with the solvent system of pH 7.4 phosphate buffer and n-octanol by shake-flask method. Meanwhile, 2-hrs equilibrium solubility of (R)-5-carbamoylpyridin-3-yl-2-methyl-4-(3-(trifluoromethoxy)benzyl)piperazine-1-carboxylate in FaSSIF and FeSSIF (version 2) was measured to be 0.12 and 0.080 mg/mL.

[4] = 2-hrs equilibrium solubility in FaSSIF and FeSSIF (version 2); details: thermodynamic from solid
Protocol: as §1

[5] = Competitive slurry study of forms A to E in water; details: room temperature, 7 days
Protocol: A competitive slurry study of all known forms A to E was performed in water at room temperature to understand the thermodynamic stability relationship among these forms. Form A was used to saturate the water before it was filtered to obtain a near-saturated solution. Equal amounts of each form (A to E) were weighed and then mixed with the prepared near-saturated solution to form a new suspension, which was stirred magnetically (˜1000 rpm) at room temperature for 7 days.

C[C@@H]1CN(Cc2cccc(OC(F)(F)F)c2)CCN1C(=O)Oc1cncc(C(N)=O)c1 [Form A, (R)-5-carbamoylpyridin-3-yl-2-methyl-4-(3-(trifluoromethoxy)benzyl)piperazine-1-carboxylate]
solubility at 2 h ([1]; FaSSIF-v2, thermodynamic from solid, FaSSIF (pH 6.5), 2 hr, final pH 6.5): 63 µg/mL (≈ 144 µM)
solubility at 24 h ([1]; FaSSIF-v2, thermodynamic from solid, FaSSIF (pH 6.5), 24 hr, final pH 6.6): 63 µg/mL (≈ 144 µM)
Form change after solubility evaluation (XRPD patterns) ([1]; FaSSIF-v2 and FeSSIF-v2, 37° C., 2 hr and 24 hr): no form change was observed
solubility at 2 h ([1]; FeSSIF-v2, thermodynamic from solid, FeSSIF (pH 5.8), 2 hr, final pH 5.9): 1000 µg/mL (≈ 2280 µM)
solubility at 24 h ([1]; FeSSIF-v2, thermodynamic from solid, FeSSIF (pH 5.8), 24 hr, final pH 6.0): 1100 µg/mL (≈ 2510 µM)
Final Form ([1]; FaSSIF (pH 6.5), 2 hr): Form A
Final Form ([1]; FaSSIF (pH 6.5), 24 hr): Form A
Final Form ([1]; FeSSIF (pH 5.8), 2 hr): Form A
Final Form ([1]; FeSSIF (pH 5.8), 24 hr): Form A
API (RRT 1.00) ([2]; 2 weeks, 25° C./60% RH): 99.84 % Area
Assay vs. 5° C. control ([2]; 2 weeks, 25° C./60% RH): 101.2%
Crystal form ([2]; 2 weeks, 25° C./60% RH): Form A
HPLC Purity ([2]; 2 weeks, 25° C./60% RH): 99.84 area %
Imp.1 (RRT 0.81) ([2]; 2 weeks, 25° C./60% RH): 0.07 % Area
Imp.2 (RRT 1.04) ([2]; 2 weeks, 25° C./60% RH): — (—: <0.05.)
Imp.3 (RRT 1.74) ([2]; 2 weeks, 25° C./60% RH): 0.09 % Area
API (RRT 1.00) ([2]; 2 weeks, 40° C./75% RH): 99.78 % Area
Assay vs. 5° C. control ([2]; 2 weeks, 40° C./75% RH): 98.1%
Crystal form ([2]; 2 weeks, 40° C./75% RH): Form A
HPLC Purity ([2]; 2 weeks, 40° C./75% RH): 99.78 area %
Imp.1 (RRT 0.81) ([2]; 2 weeks, 40° C./75% RH): 0.08 % Area
Imp.2 (RRT 1.04) ([2]; 2 weeks, 40° C./75% RH): 0.07 % Area
Imp.3 (RRT 1.74) ([2]; 2 weeks, 40° C./75% RH): 0.07 % Area
API (RRT 1.00) ([2]; 3 months, 25° C./60% RH): 99.86 % Area
Assay vs. 5° C. control ([2]; 3 months, 25° C./60% RH): 97.3%
Chiral Purity ([2]; 3 months, 25° C./60% RH): 100
Crystal form ([2]; 3 months, 25° C./60% RH): Form A
HPLC Purity ([2]; 3 months, 25° C./60% RH): 99.86 area %
Imp.1 (RRT 0.81) ([2]; 3 months, 25° C./60% RH): 0.09 % Area
Imp.3 (RRT 1.74) ([2]; 3 months, 25° C./60% RH): 0.05 % Area
API (RRT 1.00) ([2]; 3 months, 40° C./75% RH): 99.86 % Area
Assay vs. 5° C. control ([2]; 3 months, 40° C./75% RH): 96.9%
Chiral Purity ([2]; 3 months, 40° C./75% RH): 100
Crystal form ([2]; 3 months, 40° C./75% RH): Form A
HPLC Purity ([2]; 3 months, 40° C./75% RH): 99.86 area %
Imp.1 (RRT 0.81) ([2]; 3 months, 40° C./75% RH): 0.09 % Area
Imp.3 (RRT 1.74) ([2]; 3 months, 40° C./75% RH): 0.05 % Area
API (RRT 1.00) ([2]; 4 weeks, 25° C./60% RH): 99.86 % Area
Assay vs. 5° C. control ([2]; 4 weeks, 25° C./60% RH): 101.4%
Crystal form ([2]; 4 weeks, 25° C./60% RH): Form A
HPLC Purity ([2]; 4 weeks, 25° C./60% RH): 99.86 area %
Imp.1 (RRT 0.81) ([2]; 4 weeks, 25° C./60% RH): 0.07 % Area
Imp.2 (RRT 1.04) ([2]; 4 weeks, 25° C./60% RH): — (—: <0.05.)
Imp.3 (RRT 1.74) ([2]; 4 weeks, 25° C./60% RH): 0.07 % Area
API (RRT 1.00) ([2]; 4 weeks, 40° C./75% RH): 99.86 % Area
Assay vs. 5° C. control ([2]; 4 weeks, 40° C./75% RH): 101.3%
Crystal form ([2]; 4 weeks, 40° C./75% RH): Form A
HPLC Purity ([2]; 4 weeks, 40° C./75% RH): 99.86 area %
Imp.1 (RRT 0.81) ([2]; 4 weeks, 40° C./75% RH): 0.07 % Area
Imp.2 (RRT 1.04) ([2]; 4 weeks, 40° C./75% RH): — (—: <0.05.)
Imp.3 (RRT 1.74) ([2]; 4 weeks, 40° C./75% RH): 0.07 % Area
API (RRT 1.00) ([2]; 6 weeks, 25° C./60% RH): 99.86 % Area
Assay vs. 5° C. control ([2]; 6 weeks, 25° C./60% RH): 99.7%
Crystal form ([2]; 6 weeks, 25° C./60% RH): Form A
HPLC Purity ([2]; 6 weeks, 25° C./60% RH): 99.86 area %
Imp.1 (RRT 0.81) ([2]; 6 weeks, 25° C./60% RH): 0.07 % Area
Imp.2 (RRT 1.04) ([2]; 6 weeks, 25° C./60% RH): — (—: <0.05.)
Imp.3 (RRT 1.74) ([2]; 6 weeks, 25° C./60% RH): 0.07 % Area
API (RRT 1.00) ([2]; 6 weeks, 40° C./75% RH): 99.86 % Area
Assay vs. 5° C. control ([2]; 6 weeks, 40° C./75% RH): 99.2%
Crystal form ([2]; 6 weeks, 40° C./75% RH): Form A
HPLC Purity ([2]; 6 weeks, 40° C./75% RH): 99.86 area %
Imp.1 (RRT 0.81) ([2]; 6 weeks, 40° C./75% RH): 0.07 % Area
Imp.2 (RRT 1.04) ([2]; 6 weeks, 40° C./75% RH): — (—: <0.05.)
Imp.3 (RRT 1.74) ([2]; 6 weeks, 40° C./75% RH): 0.07 % Area
Physical and chemical stability under accelerated conditions ([2]; 25° C./60% RH and 40° C./75% RH for 3 months): good physical and chemical stability
API (RRT 1.00) ([2]; Initial): 99.86 % Area
Crystal form ([2]; Initial): Form A
HPLC Purity ([2]; Initial): 99.86 area %
Imp.1 (RRT 0.81) ([2]; Initial): 0.09 % Area
Imp.2 (RRT 1.04) ([2]; Initial): — (—: <0.05.)
Imp.3 (RRT 1.74) ([2]; Initial): 0.05 % Area
Chiral Purity ([2]; Initial, starting material after stored at −20° C. for about 3 months): 100*
Form change or HPLC purity decrease ([2]; after 3 months at both conditions (25° C./60% RH and 40° C./75% RH)): no significant form change or HPLC purity decrease was observed
logD [3]: 3.76
solubility thermodynamic at 2 h ([4]; FaSSIF (version 2), fassif): 120 µg/mL (≈ 274 µM)
solubility thermodynamic at 2 h ([4]; FeSSIF (version 2), fessif): 80 µg/mL (≈ 182 µM)
Thermodynamic stability relationship among forms A to E [5]: thermodynamically the most stable form
